Tested on: tobacco budworm (Heliothis virescens [Fabricius])
Assay: surface-treated diet test, insecticidal activity against tobacco budworm
Type: in vivo
Set-up: mortality: concentration or dose not given beside the values
Details: 0.25 millimoles of candidate insecticide on the surface of the diet, second instar larvae, five-day exposure; for Percent Mortality / mortality: compared to total number of insects infested; for Percent Growth Inhibition / pest or weed control at 0.25 mmol/well: inhibition of insect weight relative to untreated controls; for mortality / pest or weed control at 0.25 mmol/well: Heliothis virescens, 120 h; for mortality: read-out: Percent Mortality; for pest or weed control at 0.25 mmol/well: read-out: Percent Growth Inhibition
Method in brief: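 Second-instar larvae (~5 mg) were held five days at 25° C and 60% RH on artificial diet whose surface carried dried compound (0.25 millimolar standard rate; DMSO serial dilutions for rate series, six replicates each). Readouts: mortality and weight inhibition relative to DMSO-treated controls.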

SMILES | Percent Mortality [%] | Percent Growth Inhibition [%] | mortality [%] | pest or weed control at 0.25 mmol/well [%]
OC(COc1cccc(Cl)c1)CN1CCC(O)(C(c2ccc(OC(F)(F)F)cc2)c2ccc(OC(F)(F)F)cc2)CC1 (stereo not drawn) [Compound 471] | 0 | 82 | – | –
OC1(C(c2ccc(OC(F)(F)F)cc2)c2ccc(OC(F)(F)F)cc2)CCN(Cc2ccc(OCC3CC3)cc2)CC1 [Compound 315] | 100 | 100 | – | –
CC1(C)[C@H]2CCC1(CS(=O)(=O)[O-])C(=O)C2.OC1(C(c2ccc(OC(F)(F)F)cc2)c2ccc(OC(F)(F)F)cc2)CC[N+](O)(Cc2ccc(Oc3ccccn3)cc2)CC1 (stereo not drawn) [Compound 498] | 100 | 100 | – | –
CCn1nnc(-c2ccc(CN3CCC(O)(C(c4ccc(Cl)c(Cl)c4)c4ccc(Cl)c(Cl)c4)CC3)cc2)n1 [Compound 26] | 100 | 100 | – | –
CC1(C)C(C=C(Cl)C(F)(F)F)C1C(=O)[O-].OC1(C(c2ccc(C(F)(F)F)cc2)c2ccc(C(F)(F)F)cc2)CC[N+](O)(Cc2ccc(Oc3ccc(Cl)nn3)cc2)CC1 (mixture of isomers) [Compound 519] | 100 | 100 | – | –
CCOC(OCC)c1ccc(C[N+]2([O-])CCC(O)(C(c3ccc(OC(F)(F)F)cc3)c3ccc(OC(F)(F)F)cc3)CC2)cc1 (stereo not drawn) [Compound 351] | 100 | 100 | – | –
Cc1cccnc1Oc1ccc(CN2CCC(O)(C(c3ccc(OC(F)(F)F)cc3)c3ccc(OC(F)(F)F)cc3)CC2)cc1 [Compound 271] | 100 | 100 | – | –
CC(C)OC(=O)c1ccc(CN2CCC(O)(C(c3ccc(C(F)(F)F)cc3)c3ccc(C(F)(F)F)cc3)CC2)cc1 [Compound 330] | 100 | 100 | – | –
CC(=O)OCC1(C(c2ccc(C(F)(F)F)cc2)c2ccc(C(F)(F)F)cc2)CCN(Cc2ccc(Oc3ncccn3)cc2)CC1 [Compound 452] | 0 | 100 | – | –
CCCOc1ccc(CN2CCC(O)(C(O)(c3ccc(C(F)(F)F)cc3)c3ccc(C(F)(F)F)cc3)CC2)cc1 [Compound 92] | 100 | 100 | – | –
OC1(C(c2ccc(OC(F)(F)F)cc2)c2cccc(Cl)c2)CCN(Cc2ccc(Oc3ccccn3)cc2)CC1 (stereo not drawn) [Compound 439] | 100 | 100 | – | –
[O-][N+]1(Cc2ccc(Oc3ccccn3)cc2)CCC(O)(C(c2ccc(Cl)cc2)c2ccc(OC(F)(F)F)cc2)CC1 (stereo not drawn) [Compound 391] | 100 | 100 | – | –
CCON=Cc1ccc(CN2CCC(O)(C(c3ccc(OC(F)(F)F)cc3)c3ccc(Cl)cc3Cl)CC2)cc1 (stereo not drawn) [Compound 444] | 100 | 100 | – | –
OC1(C(c2ccc(C(F)(F)F)cc2)c2ccc(Cl)cc2Cl)CCN(Cc2ccc(Oc3ncccn3)cc2)CC1 (stereo not drawn) [Compound 15] | 100 | 100 | – | –
CCS(=O)(=O)[O-].OC1(C(c2ccc(OC(F)(F)F)cc2)c2ccc(OC(F)(F)F)cc2)CC[N+](O)(Cc2ccc(Oc3ccccn3)cc2)CC1 (stereo not drawn) [Compound 506] | 100 | 100 | – | –
FC(F)(F)Oc1ccc(C(c2ccc(OC(F)(F)F)cc2)C2(F)CCN(Cc3ccc(Oc4ncccn4)cc3)CC2)cc1 [Compound 192, 4-{bis[4-(trifluoromethoxy)phenyl]methyl}-4-fluoro-1-[(4-pyrimidin-2-yloxyphenyl)methyl]piperidine] | – | – | 100 | 100
OC1(C(c2ccc(C(F)(F)F)cc2)c2ccc(C(F)(F)F)cc2)CCN(Cc2ccc(OCc3ccccc3)cc2)CC1 [Compound 316] | 67 | 100 | – | –
Cn1nnc(-c2ccc(CN3CCC(O)(C(O)(c4ccc(OC(F)(F)F)cc4)c4ccc(OC(F)(F)F)cc4)CC3)cc2)n1 [Compound 93, 4-{bis[4-(trifluoromethoxy)phenyl]hydroxymethyl}-1-{[4-(2-methyl(1,2,3,4-tetrazol-5-yl))phenyl]methyl}piperidin-4-ol] | – | – | 100 | 100
COCCON=Cc1ccc(C[N+]2([O-])CCC(O)(C(c3ccc(OC(F)(F)F)cc3)c3ccc(OC(F)(F)F)cc3)CC2)cc1 (stereo not drawn) [Compound 344] | 100 | 100 | – | –
CCON=Cc1ccc(C[N+]2(O)CCC(O)(C(c3ccc(OC(F)(F)F)cc3)c3ccc(OC(F)(F)F)cc3)CC2)cc1.O=S(=O)([O-])C(F)(F)C(F)(F)C(F)(F)C(F)(F)F (stereo not drawn) [Compound 487] | 100 | 100 | – | –
[O-][N+]1(CCCCOc2ccc(Cl)cc2)CCC(O)(C(c2ccc(OC(F)(F)F)cc2)c2ccc(OC(F)(F)F)cc2)CC1 (stereo not drawn) [Compound 480] | 100 | 100 | – | –

SMILES | Percent Mortality [%] | Percent Growth Inhibition [%] | mortality [%] | pest or weed control at 0.25 mmol/well [%]
OC1(C(c2ccc(C(F)(F)F)cc2)c2ccc(C(F)(F)F)cc2)CCN(Cc2ccc(Oc3ncccn3)cc2)CC1 [Compound 16] | 100 | 100 | – | –
O=S(=O)([O-])C(F)(F)C(F)(F)C(F)(F)C(F)(F)F.OC1(C(c2ccc(OC(F)(F)F)cc2)c2ccc(OC(F)(F)F)cc2)CC[N+](O)(Cc2ccc(Oc3ccccn3)cc2)CC1 (stereo not drawn) [Compound 508] | 100 | 100 | – | –
OC1(C(c2ccc(C(F)(F)F)cc2)c2ccc(Cl)c(Cl)c2)CCN(Cc2ccc(Oc3ncccn3)cc2)CC1 (stereo not drawn) [Compound 9] | 100 | 100 | – | –
OC1(C(c2ccc(C(F)(F)F)cc2)c2ccccc2Cl)CCN(Cc2ccc(Oc3ncccn3)cc2)CC1 (stereo not drawn) [Compound 18] | 100 | 100 | – | –
OCC1(C(c2ccc(C(F)(F)F)cc2)c2ccc(C(F)(F)F)cc2)CCN(Cc2ccc(Oc3ncccn3)cc2)CC1 [Compound 448] | 0 | 96 | – | –
[O-][N+]1(Cc2ccc(Oc3ccccn3)cc2)CCC(O)(C(c2ccc(Br)cc2)c2ccc(OC(F)(F)F)cc2)CC1 (stereo not drawn) [Compound 339] | 100 | 100 | – | –
CC(=O)OC(c1ccc(Cl)cc1)c1ccc(CN2CCC(O)(C(c3ccc(OC(F)(F)F)cc3)c3ccc(OC(F)(F)F)cc3)CC2)cc1 (racemic) [Compound 289] | 100 | 100 | – | –
CCON=Cc1ccc(C[N+]2(O)CCC(O)(C(c3ccc(OC(F)(F)F)cc3)c3ccc(OC(F)(F)F)cc3)CC2)cc1.O=S(=O)([O-])C(F)(F)C(F)(F)C(F)(F)C(F)(F)C(F)(F)C(F)(F)C(F)(F)C(F)(F)F (stereo not drawn) [Compound 495] | 100 | 100 | – | –
N#CCON=Cc1ccc(C[N+]2([O-])CCC(O)(C(c3ccc(OC(F)(F)F)cc3)c3ccc(OC(F)(F)F)cc3)CC2)cc1 (stereo not drawn) [Compound 353] | 100 | 100 | – | –
OC1(C(c2ccc(OC(F)(F)F)cc2)c2ccc(OC(F)(F)F)cc2)CCN(Cc2ccc(Oc3ccc(Cl)cc3)cc2)CC1 [Compound 290] | 100 | 100 | – | –
[O-][N+]1(Cc2ccc(OCc3ccccc3)cc2)CCC(O)(C(c2ccc(C(F)(F)F)cc2)c2ccc(C(F)(F)F)cc2)CC1 (stereo not drawn) [Compound 393] | 100 | 100 | – | –
OC1(C(c2ccc(OC(F)(F)F)cc2)c2cccc(Cl)c2Cl)CCN(Cc2ccc(Oc3ccccn3)cc2)CC1 (stereo not drawn) [Compound 438] | 100 | 100 | – | –
ON=Cc1ccc(CN2CCC(O)(C(c3ccc(C(F)(F)F)cc3)c3ccc(C(F)(F)F)cc3)CC2)cc1 [Compound 270] | 100 | 100 | – | –
OC1(C(c2ccc(OC(F)(F)F)cc2)c2ccccc2Cl)CCN(Cc2ccc(Oc3ccccn3)cc2)CC1 (stereo not drawn) [Compound 437] | 100 | 100 | – | –
CCCOc1ccc(C[N+]2([O-])CCC(O)(C(O)(c3ccc(OC(F)(F)F)cc3)c3ccc(OC(F)(F)F)cc3)CC2)cc1 (stereo not drawn) [Compound 123] | 100 | 100 | – | –
[O-][N+]1(Cc2ccc(Oc3ccccn3)cc2)CCC(O)(C(c2ccc(OC(F)(F)F)cc2)c2cccc(Cl)c2)CC1 (stereo not drawn) [Compound 458] | 100 | 100 | – | –
O=S(=O)([O-])C(F)(F)C(F)(F)C(F)(F)C(F)(F)C(F)(F)C(F)(F)C(F)(F)C(F)(F)F.OC1(C(c2ccc(OC(F)(F)F)cc2)c2ccc(OC(F)(F)F)cc2)CC[N+](O)(Cc2ccc(Oc3ccccn3)cc2)CC1 (stereo not drawn) [Compound 496] | 100 | 100 | – | –
[O-][N+]1(Cc2ccc(Oc3ccc(Cl)nn3)cc2)CCC(O)(C(c2ccc(OC(F)(F)F)cc2)c2ccc(OC(F)(F)F)cc2)CC1 (stereo not drawn) [Compound 412] | 100 | 100 | – | –
CC(O)c1ccc(C(c2ccc(OC(F)(F)F)cc2)C2(O)CCN(Cc3ccc(Oc4ccccn4)cc3)CC2)cc1 (mixture of isomers) [Compound 287] | 100 | 100 | – | –
CC(C)OC(=O)Nc1ccc(C[N+]2(Cc3ccc(NC(=O)OC(C)C)cc3)CCC(O)(C(O)(c3ccc(OC(F)(F)F)cc3)c3ccc(OC(F)(F)F)cc3)CC2)cc1.[Cl-] [Compound 521] | 50 | 100 | – | –
COCCOCCON=Cc1ccc(C[N+]2([O-])CCC(O)(C(c3ccc(OC(F)(F)F)cc3)c3ccc(OC(F)(F)F)cc3)CC2)cc1 (stereo not drawn) [Compound 336] | 100 | 100 | – | –

Source: US8119563B2, “N-substituted azacycles” (FMC Corporation, priority 2003, dated 2012)
